Data published in US7635696B2, “Isoxazoline-indole derivatives with an improved antipsychotic and anxiolytic activity” (Janssen Pharmaceutica N.V., priority 2004, dated 2009).
Like-named read-outs stand apart in the source and are kept apart here.

What was measured:
human 5HT transporter = target: T1, human 5HT transporter (Homo sapiens, UniProt P31645); assay: Binding experiment for 5-HT transporter ([3H]Paroxetine)
T1 construct: host or cells: HEK cells
Description: (§1) The interaction of the compounds of Formula (I) with dopamine-receptors, h5HT-transporter and h5HT1A receptor was assessed in in vitro radioligand binding experiments. In general, a low concentration of a radioligand with a high binding affinity for a particular receptor or transporter is incubated with a sample of a tissue preparation enriched in a particular receptor or transporter or with a preparation of cells expressing cloned human receptors in a buffered medium. During the incubation, the radioligand binds to the receptor or transporter. When equilibrium of binding is reached, the receptor bound radioactivity is separated from the non-bound radioactivity, and the receptor- or transporter-bound activity is counted. The interaction of the test compounds with the receptor is assessed in competition binding experiments. Various concentrations of the test compound are added to the incubation mixture containing the receptor- or transporter preparation and the radioligand. The test compound in proportion to its binding affinity and its concentration inhibits binding of the radioligand.
Frozen human 5HT transporter-transfected HEK cells (Perkin Elmer, Brussels) were thawed and briefly homogenised using an Ultra-Turrax T25 homogeniser prior to dilution to an appropriate protein concentration optimised for specific and non-specific binding. [^3H]Paroxetine (NEN, specific activity 20 Ci/mmol) was diluted in Tris-HCl assay buffer containing NaCl and KCl (50 mM, 120 mM and 5 mM, respectively; pH 7.4) at a concentration of 5 nmol/L. Prepared radioligand (25 μl) was then incubated (60 min, 25° C.) with membrane preparations (200 μl) and with 25 μl of either 10% DMSO control, Inipramine (10^−6 mol/L final concentration), or compound of interest. Membrane-bound activity was detected by filtration through a Packard Filtermate harvester onto Unifilterplates pre-soaked in 0.1% PEI, washing with ice-cold assay buffer (3×4 ml). Filters were dried prior to addition of scintillation fluid and then counting in a Topcount scintillation counter. % Specific bound and competition binding curves were calculated using S-Plus software (Insightful).

Human 5HT1A receptor = target: T2, Human 5HT1A receptor (Homo sapiens, UniProt P08908); assay: Binding experiment for 5-HT1A receptor ([3H]8OHDPAT)
T2 construct: expressed in transfected cells; host or cells: L929 cells (stably transfected)
T2 sequence (P08908 1-422): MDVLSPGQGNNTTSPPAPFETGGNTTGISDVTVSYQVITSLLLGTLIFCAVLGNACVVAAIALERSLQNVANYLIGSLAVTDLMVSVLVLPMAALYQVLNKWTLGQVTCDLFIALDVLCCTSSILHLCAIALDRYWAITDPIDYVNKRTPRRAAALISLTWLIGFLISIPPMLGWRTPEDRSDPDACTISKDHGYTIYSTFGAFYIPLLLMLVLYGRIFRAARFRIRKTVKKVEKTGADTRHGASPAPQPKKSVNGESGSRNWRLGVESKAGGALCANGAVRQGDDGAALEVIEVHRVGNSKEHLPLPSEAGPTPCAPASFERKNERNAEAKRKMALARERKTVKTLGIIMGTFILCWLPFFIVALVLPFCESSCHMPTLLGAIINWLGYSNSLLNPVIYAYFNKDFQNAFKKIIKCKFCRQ
Description: as §1
Human 5HT1A receptor-transfected L929 cells were collected by scraping into ice-cold Tris-HCl buffer (50 mM, pH 7.4). The suspension was centrifuged (23 500×g, 10 min, 4° C.) and pellets stored at −70° C. until required. They were then thawed and briefly homogenised using an Ultra-Turrax T25 homogeniser prior to dilution to an appropriate protein concentration optimised for specific and non-specific binding. [^3H]80HDPAT (NEN, specific activity 127 Ci/mmol) was diluted in Tris-HCl assay buffer containing CaCl2 (50 mM and 4 mM, respectively; pH 7.7) at a concentration of 5 nmol/L. Prepared radioligand (50 μl) was then incubated (30 min, 37° C.) with membrane preparations from L929 cells stably-transfected with the h5HT1A gene construct (400 μl) and with 50 μl of either the 10% DMSO control, spiroxatrine (10^−6 mol/L final concentration), or compound of interest. Membrane-bound activity was detected by filtration through a Packard Filtermate harvester onto Unifilterplates, washing with ice-cold Tris-HCl buffer (3×4 ml), followed by drying. Scintillation fluid was added and membranes were counted in a Topcount scintillation counter. % Specific bound and competition binding curves were calculated using S-Plus software (Insightful).

[1] = target: T3, Human Dopamine D2L receptor (Homo sapiens, UniProt P14416); assay: Binding experiment for dopamine D2 receptor ([3H]Spiperone); conditions: D2L-transfected CHO cell membranes; for IC50: read-out: pIC50 D2 (converted)
T3 construct: expressed in transfected cells; host or cells: CHO cells
Description: as §1
Human Dopamine D2L receptor-transfected CHO cells were collected by scraping into ice-cold Tris-HCl buffer (50 mM, pH 7.4). The suspension was centrifuged (23 500×g, 10 min, 4° C.) and pellets stored at −70° C. until required. They were then thawed and briefly homogenised using an Ultra-Turrax T25 homogeniser prior to dilution to an appropriate protein concentration optimised for specific and non-specific binding. [^3H]Spiperone (NEN, specific activity ˜70 Ci/mmol) was diluted in Tris-HCl assay buffer containing NaCl, CaCl2, MgCl2, KCl (50, 120, 2, 1, and 5 mM respectively, adjusted to pH 7.7 with HCl) at a concentration of 2 nmol/L. Prepared radioligand (50 μl) was then incubated (30 min, 37° C.) with membrane preparations pre-diluted to an appropriate protein concentration (400 μl), and with 50 μl of either the 10% DMSO control, Butaclamol (10^−6 mol/L final concentration), or compound of interest. Membrane-bound activity was detected by filtration through a Packard Filtermate harvester onto Unifilterplates, washing with ice-cold Tris-HCl buffer (50 mM; pH8.0; 3×4 ml). Filters were allowed to dry before adding scintillation fluid and counting in a Topcount scintillation counter. % Specific bound and competition binding curves were calculated using S-Plus software (Insightful).

[2] = target: T4, Human Dopamine D3 receptor (Homo sapiens, UniProt P35462); assay: Binding experiment for dopamine D3 receptor ([125I]Iodosulpride); conditions: transfected CHO cell membranes; for IC50: read-out: pIC50 D3 (converted)
T4 construct: expressed in transfected cells; host or cells: CHO cells
Description: as §1
Human Dopamine D3 receptor-transfected CHO cells were collected by scraping into ice-cold Tris-HCl buffer (50 mM, pH 7.4). The suspension was centrifuged (23 500×g, 10 min, 4° C.) and pellets stored at −70° C. until required. They were then thawed and briefly homogenised using an Ultra-Turrax T25 homogeniser prior to dilution to an appropriate protein concentration optimised for specific and non-specific binding. [^125I]Iodosulpride (Amersham, specific activity 2000 Ci/mmol) was diluted in Tris-HCl assay buffer containing NaCl, CaCl2, MgCl2, KCl and BSA (50, 120, 2, 1, 5 mM, 0.1% respectively, adjusted to pH 7.7 with HCl) at a concentration of 2 nmol/L. Prepared radioligand (20 μl) was incubated (60 min, RT) and with 20 μl of either the 10% DMSO control, Risperidone (10^−6 mol/L final concentration), or compound of interest, then with membrane preparations (80 μl). Overnight incubation followed after addition of WGA-coated PVT SPA beads (250 μl; Amersham) and membrane-bound counts measured in a Wallac Microbeta. % Specific bound and competition binding curves were calculated using S-Plus software (Insightful).

[3] = transfected HEK cell membranes, [3H]Paroxetine
[4] = transfected L929 cell membranes, [3H]8OHDPAT
[5] = transfected HEK cell membranes, [3H]Paroxetine, read-out: pIC50 5HTT (converted)
[6] = transfected L929 cell membranes, [3H]8OHDPAT, read-out: pIC50 5-HT1A (converted)

T4 sequence (P35462 whole entry): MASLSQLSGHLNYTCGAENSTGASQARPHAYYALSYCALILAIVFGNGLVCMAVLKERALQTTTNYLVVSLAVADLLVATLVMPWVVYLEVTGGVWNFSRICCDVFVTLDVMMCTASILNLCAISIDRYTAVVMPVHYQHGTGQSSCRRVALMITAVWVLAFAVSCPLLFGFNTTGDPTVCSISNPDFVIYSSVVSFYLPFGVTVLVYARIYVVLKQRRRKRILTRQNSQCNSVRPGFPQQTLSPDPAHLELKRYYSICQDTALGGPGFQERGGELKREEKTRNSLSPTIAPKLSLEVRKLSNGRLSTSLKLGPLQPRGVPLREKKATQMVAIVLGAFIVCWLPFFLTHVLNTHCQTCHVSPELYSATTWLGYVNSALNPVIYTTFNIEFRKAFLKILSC
T1 sequence (P31645 whole entry): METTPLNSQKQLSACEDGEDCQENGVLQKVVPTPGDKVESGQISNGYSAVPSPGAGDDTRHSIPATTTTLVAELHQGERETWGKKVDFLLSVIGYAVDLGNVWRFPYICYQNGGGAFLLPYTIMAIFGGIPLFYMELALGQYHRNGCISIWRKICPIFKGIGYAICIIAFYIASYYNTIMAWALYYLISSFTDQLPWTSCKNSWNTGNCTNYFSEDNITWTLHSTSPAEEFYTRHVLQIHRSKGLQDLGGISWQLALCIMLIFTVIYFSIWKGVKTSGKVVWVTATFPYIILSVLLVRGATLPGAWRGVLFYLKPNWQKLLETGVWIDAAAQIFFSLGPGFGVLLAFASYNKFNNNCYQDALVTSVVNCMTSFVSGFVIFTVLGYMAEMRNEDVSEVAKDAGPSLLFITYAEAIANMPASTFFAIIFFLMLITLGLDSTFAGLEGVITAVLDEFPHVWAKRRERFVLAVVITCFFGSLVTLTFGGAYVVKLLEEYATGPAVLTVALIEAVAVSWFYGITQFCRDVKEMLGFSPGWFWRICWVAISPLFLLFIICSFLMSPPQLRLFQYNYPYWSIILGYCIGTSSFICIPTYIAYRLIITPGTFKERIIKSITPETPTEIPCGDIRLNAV
T3 sequence (P14416 whole entry): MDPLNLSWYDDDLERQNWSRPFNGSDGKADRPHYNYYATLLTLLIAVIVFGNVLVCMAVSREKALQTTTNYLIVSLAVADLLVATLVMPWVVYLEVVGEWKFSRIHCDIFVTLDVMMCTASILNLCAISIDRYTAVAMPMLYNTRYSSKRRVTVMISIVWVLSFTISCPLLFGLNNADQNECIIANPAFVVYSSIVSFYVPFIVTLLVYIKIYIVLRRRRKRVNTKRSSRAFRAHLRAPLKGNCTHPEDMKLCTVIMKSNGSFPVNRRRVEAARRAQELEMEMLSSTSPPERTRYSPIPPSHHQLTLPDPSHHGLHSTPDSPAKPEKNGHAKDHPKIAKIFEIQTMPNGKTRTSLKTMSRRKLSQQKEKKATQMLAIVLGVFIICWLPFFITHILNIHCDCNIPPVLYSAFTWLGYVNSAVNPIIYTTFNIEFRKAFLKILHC

COc1cc2c(cc1OC)C1=NOC(CN3CC=C(c4c[nH]c5cccc(F)c45)CC3)C1CO2 (single isomer, unassigned) [Compound 13]
pIC50 5HTT (human 5HT transporter; [3]): 7.7
pIC50 5-HT1A (Human 5HT1A receptor; [4]): 8.7
pIC50 D2 [1]: 6.2
pIC50 D3 [2]: 6.8

Fc1ccc2[nH]cc(C3=CCN(CC4ON=C5c6cc7c(cc6OCC54)OCCO7)CC3)c2c1 (single isomer, unassigned) [Compound 28]
pIC50 5HTT (human 5HT transporter; [3]): 7.8
pIC50 5-HT1A (Human 5HT1A receptor; [4]): 8.6
pIC50 D2 [1]: 6.3
pIC50 D3 [2]: 6.2

Fc1ccc2[nH]cc(C3CCN(CC4ON=C5c6cc7c(cc6OCC54)OCCO7)CC3)c2c1 (single isomer, unassigned) [Compound 29]
pIC50 5HTT (human 5HT transporter; [3]): 6.9
pIC50 5-HT1A (Human 5HT1A receptor; [4]): 8.8
pIC50 D2 [1]: 6.6
pIC50 D3 [2]: 6.5

COc1cc2c(cc1OC)C1=NOC(CN3CC=C(c4c[nH]c5cc(F)ccc45)CC3)C1CO2 (racemic) [Compound 27]
pIC50 5HTT (human 5HT transporter; [3]): 7.6
pIC50 5-HT1A (Human 5HT1A receptor; [4]): 7.2
pIC50 D2 [1]: 6.9
pIC50 D3 [2]: 6.4

COc1cc2c(cc1OC)C1=NOC(CN3CC=C(c4c[nH]c5ccc(Br)cc45)CC3)C1CO2 (racemic) [Compound 10]
pIC50 5HTT (human 5HT transporter; [3]): 6.7
pIC50 5-HT1A (Human 5HT1A receptor; [4]): 8.3
pIC50 D2 [1]: 6.3
pIC50 D3 [2]: 6.5

COc1cc2c(cc1OC)C1=NOC(CN3CCC(c4c[nH]c5ccc(F)cc45)CC3)C1CO2 (single isomer, unassigned) [Compound 15]
pIC50 5HTT (human 5HT transporter; [3]): 7.1
pIC50 5-HT1A (Human 5HT1A receptor; [4]): 7.2
pIC50 D2 [1]: 6.1
pIC50 D3 [2]: 6.4

COc1cc2c(cc1OC)C1=NOC(CN3CC=C(c4c[nH]c5cccc(F)c45)CC3)C1CO2 (single isomer, unassigned) [Compound 16]
pIC50 5HTT (human 5HT transporter; [3]): 6.9
pIC50 5-HT1A (Human 5HT1A receptor; [4]): 7.1
pIC50 D2 [1]: 6.0
pIC50 D3 [2]: 6.5

COc1cc2c(cc1OC)C1=NOC(CNCCCc3c[nH]c4ccc(F)cc34)C1CO2 (single isomer, unassigned) [Compound 5]
pIC50 5HTT (human 5HT transporter; [3]): 7.2
pIC50 5-HT1A (Human 5HT1A receptor; [4]): >9
pIC50 D2 [1]: 6.6
pIC50 D3 [2]: 7.0

COc1cc2c(cc1OC)C1=NOC(CN3CC=C(c4c[nH]c5ccc(F)cc45)CC3)C1CO2 (racemic) [Compound 1]
IC50 (human 5HT transporter; [5]): 15.8 nM
IC50 (Human 5HT1A receptor; [6]): 31.6 nM
IC50 [1]: 398 nM
IC50 [2]: 126 nM

COc1cc2c(cc1OC)C1=NOC(CN3CC=C(c4c[nH]c5ccccc45)CC3)C1CO2 (single isomer, unassigned) [Compound 14]
pIC50 5HTT (human 5HT transporter; [3]): 7.5
pIC50 5-HT1A (Human 5HT1A receptor; [4]): 8.3
pIC50 D2 [1]: 6.8
pIC50 D3 [2]: 6.5

COc1cc2c(cc1OC)C1=NOC(CN3CCC(c4c[nH]c5ccc(C)cc45)CC3)C1CO2 (racemic) [Compound 31]
IC50 (human 5HT transporter; [5]): 200 nM
IC50 (Human 5HT1A receptor; [6]): 3.16 nM
IC50 [1]: 398 nM
IC50 [2]: 398 nM

COc1cc2c(cc1OC)C1=NOC(CN3CC=C(c4c[nH]c5ccc([N+](=O)[O-])cc45)CC3)C1CO2 (racemic) [Compound 19]
pIC50 5HTT (human 5HT transporter; [3]): 7.1
pIC50 5-HT1A (Human 5HT1A receptor; [4]): 8.1
pIC50 D2 [1]: 6.1
pIC50 D3 [2]: 6.5

COc1cc2c(cc1OC)C1=NOC(CN3CC=C(c4c[nH]c5ccc(NS(C)(=O)=O)cc45)CC3)C1CO2.O=C(O)C(F)(F)F (racemic) [Compound 43]
pIC50 5HTT (human 5HT transporter; [3]): <5
pIC50 5-HT1A (Human 5HT1A receptor; [4]): 8.7
pIC50 D2 [1]: 6.0

COc1cc2c(cc1OC)C1=NOC(CN3CC=C(c4c[nH]c5ccc(NC(=O)Nc6ccccc6)cc45)CC3)C1CO2 (racemic) [Compound 38]
pIC50 5HTT (human 5HT transporter; [3]): <5
pIC50 5-HT1A (Human 5HT1A receptor; [4]): 8.4
pIC50 D2 [1]: <5

CCOC(=O)C(=O)Nc1ccc2[nH]cc(C3=CCN(CC4ON=C5c6cc(OC)c(OC)cc6OCC54)CC3)c2c1 (racemic) [Compound 42]
pIC50 5HTT (human 5HT transporter; [3]): <5.5
pIC50 5-HT1A (Human 5HT1A receptor; [4]): 8.2
pIC50 D2 [1]: <5

COc1cc2c(cc1OC)C1=NOC(CN3CCC(c4c[nH]c5cc(F)ccc45)CC3)C1CO2 (single isomer, unassigned) [Compound 35]
pIC50 5HTT (human 5HT transporter; [3]): 7.3
pIC50 5-HT1A (Human 5HT1A receptor; [4]): 6.4
pIC50 D2 [1]: 6.9

COc1cc2c(cc1OC)C1=NO[C@@H](CN3CC=C(c4cn(C)c5ccccc45)CC3)[C@@H]1CO2 (single isomer, unassigned) [Compound 34]
IC50 (human 5HT transporter): 63.1 nM
IC50 (Human 5HT1A receptor): 20 nM
IC50 [1]: 2000 nM
